Measurements taken from patent publication US20240252488A1 (KOREA RESEARCH INSTITUTE OF CHEMICAL TECHNOLOGY, priority 2020, published 2024).

Assays:
FADD−/− Jurkat cells = assay: Necroptosis inhibition assay, TNF-α-induced necroptosis (CellTiter-Glo 2.0); type: cell-based, human; details: TNF-α 15 ng/mL, FADD−/− Jurkat cells; for Necroptosis inhibition assay (Rescue %) 1 μM: compound 1 μM; for Necroptosis inhibition assay (Rescue %) 10 μM: compound 10 μM
Summary of the method: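 Cells at 5.0×10^5 cells/mL were pretreated with compound (final 0.1, 1 and 10 μM) for 30 minutes at room temperature, then given TNF-α at 15 ng/mL final. After 20 to 24 hours at 37° C, 5% CO2, viability was read as ATP luminescence to calculate cytotoxicity and necroptosis inhibition rate.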

MLKL [1] = target: T1, MLKL (Homo sapiens, UniProt Q8NB16); assay: MLKL degradation assay in HepG2 cell line (western blot); type: cell-based; design: endogenous in cells; host or cells: HepG2 or HaCaT; details: cell line not given; for Degradation assay (Degradation %) 1 μM: compound 1 μM; for Degradation assay (Degradation %) 10 μM: compound 10 μM
T1 sequence (Q8NB16 1-471): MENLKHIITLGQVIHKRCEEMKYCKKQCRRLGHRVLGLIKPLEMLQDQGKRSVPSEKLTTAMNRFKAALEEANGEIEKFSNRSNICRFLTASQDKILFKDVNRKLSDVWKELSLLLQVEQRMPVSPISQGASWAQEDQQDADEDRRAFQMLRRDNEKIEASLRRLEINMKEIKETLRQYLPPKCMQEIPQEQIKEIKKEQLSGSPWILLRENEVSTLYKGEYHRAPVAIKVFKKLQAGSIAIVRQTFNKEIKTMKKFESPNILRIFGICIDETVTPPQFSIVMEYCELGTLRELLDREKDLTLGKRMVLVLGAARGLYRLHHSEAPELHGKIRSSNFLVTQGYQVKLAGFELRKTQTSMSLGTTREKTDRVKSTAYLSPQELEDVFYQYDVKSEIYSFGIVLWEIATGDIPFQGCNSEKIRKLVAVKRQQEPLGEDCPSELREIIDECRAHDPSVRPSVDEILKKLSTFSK
Summary of the method: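 HepG2 cells were exposed to compound at a final 1 or 10 μM for 20-24 hours at 37 °C, 5% CO2. RIPA lysates were normalized by BCA assay, 10-15 μg protein resolved by SDS-PAGE, and MLKL levels detected by western blot with chemiluminescence.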

MLKL [2] = target: T1, MLKL; assay: Measurement of binding affinity with MLKL receptor (competitive binding assay, Kd); design: made in house; host or cells: HEK 293 cell line (T7 phage in E. coli BL21-derived host is also described)
Summary of the method: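 Kd from an immobilized-ligand competition format: the DNA-tagged kinase from HEK 293 expression is eluted and quantified by qPCR. Compounds added from 111× DMSO stocks, final DMSO 0.9%.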

| Degradation assay (Degradation %) 1 μM (MLKL [1]) | Degradation assay (Degradation %) 10 μM (MLKL [1]) | Kd (MLKL [2]) | Compound | Necroptosis inhibition assay (Rescue %) 1 μM (FADD−/− Jurkat cells) | Necroptosis inhibition assay (Rescue %) 10 μM (FADD−/− Jurkat cells) |
| --- | --- | --- | --- | --- | --- |
| 74.16% | 46.20% | 2.1 nM | Nc1ncc(-c2cnn(C3CCN(C(=O)CCC4CCN(C(=O)CNc5cccc6nnn(C7CCC(=O)NC7=O)c(=O)c56)CC4)CC3)c2)nc1C(=O)O[C@@H](C(=O)Nc1ccc(F)cc1)c1ccccc1 (stereo partly drawn) [TDH-433, (R)-2-((4-fluorophenyl)amino)-2-oxo-1-phenylethyl 3-amino-6-(1-(1-(3-(1-((3-(2,6-dioxopiperidin-3-yl)-4-oxo-3,4-dihydrobenzo[d][1,2,3]triazin-5-yl)glycyl)piperidin-4-yl)propanoyl)piperidin-4-yl)-1H-pyrazol-4-yl)pyrazine-2-carboxylate] | 16.00% | 11.01% |
| 85.08% | 74.66% | 1.4 nM | Nc1ncc(-c2cnn(C3CCN(C(=O)CCC4CCN(C(=O)CNc5ccc6nnn(C7CCC(=O)NC7=O)c(=O)c6c5)CC4)CC3)c2)nc1C(=O)O[C@@H](C(=O)Nc1ccc(F)cc1)c1ccccc1 (stereo partly drawn) [TDH-434, (R)-2-((4-fluorophenyl)amino)-2-oxo-1-phenylethyl 3-amino-6-(1-(1-(3-(1-((3-(2,6-dioxopiperidin-3-yl)-4-oxo-3,4-dihydrobenzo[d][1,2,3]triazin-6-yl)glycyl)piperidin-4-yl)propanoyl)piperidin-4-yl)-1H-pyrazol-4-yl)pyrazine-2-carboxylate] | 28.72% | 20.87% |
| 79.73% | 64.92% | 1.8 nM | Nc1ncc(-c2cnn(C3CCN(C(=O)CCC4CCN(C(=O)C5CCN(c6cccc7nnn(C8CCC(=O)NC8=O)c(=O)c67)CC5)CC4)CC3)c2)nc1C(=O)O[C@@H](C(=O)Nc1ccc(F)cc1)c1ccccc1 (stereo partly drawn) [TDH-435, (R)-2-((4-fluorophenyl)amino)-2-oxo-1-phenylethyl 3-amino-6-(1-(1-(3-(1-(1-(3-(2,6-dioxopiperidin-3-yl)-4-oxo-3,4-dihydrobenzo[d][1,2,3]triazin-5-yl)piperidine-4-carbonyl)piperidin-4-yl)propanoyl)piperidin-4-yl)-1H-pyrazol-4-yl)pyrazine-2-carboxylate] | 18.26% | 11.49% |
| 85.98% | 71.25% | 3.1 nM | Nc1ncc(-c2cnn(C3CCN(C(=O)CCC4CCN(C(=O)C5CCN(c6ccc7nnn(C8CCC(=O)NC8=O)c(=O)c7c6)CC5)CC4)CC3)c2)nc1C(=O)O[C@@H](C(=O)Nc1ccc(F)cc1)c1ccccc1 (stereo partly drawn) [TDH-436, (R)-2-((4-fluorophenyl)amino)-2-oxo-1-phenylethyl 3-amino-6-(1-(1-(3-(1-(1-(3-(2,6-dioxopiperidin-3-yl)-4-oxo-3,4-dihydrobenzo[d][1,2,3]triazin-6-yl)piperidine-4-carbonyl)piperidin-4-yl)propanoyl)piperidin-4-yl)-1H-pyrazol-4-yl)pyrazine-2-carboxylate] | 41.81% | 21.38% |
| 87.34% | 79.50% | 1.3 nM | Nc1ncc(-c2cnn(C3CCN(C(=O)CCC4CCN(C(=O)COc5ccc6nnn(C7CCC(=O)NC7=O)c(=O)c6c5)CC4)CC3)c2)nc1C(=O)O[C@@H](C(=O)Nc1ccc(F)cc1)c1ccccc1 (stereo partly drawn) [TDH-437, (R)-2-((4-fluorophenyl)amino)-2-oxo-1-phenylethyl 3-amino-6-(1-(1-(3-(1-(2-((3-(2,6-dioxopiperidin-3-yl)-4-oxo-3,4-dihydrobenzo[d][1,2,3]triazin-6-yl)oxy)acetyl)piperidin-4-yl)propanoyl)piperidin-4-yl)-1H-pyrazol-4-yl)pyrazine-2-carboxylate] | 42.82% | 23.20% |
| 86.72% | 78.91% | 4.5 nM | Nc1ncc(-c2cnn(C3CCN(C(=O)CCC4CCN(C(=O)C5CN(c6ccc7nnn(C8CCC(=O)NC8=O)c(=O)c7c6)C5)CC4)CC3)c2)nc1C(=O)O[C@@H](C(=O)Nc1ccc(F)cc1)c1ccccc1 (stereo partly drawn) [TDH-438, (R)-2-((4-fluorophenyl)amino)-2-oxo-1-phenylethyl 3-amino-6-(1-(1-(3-(1-(1-(3-(2,6-dioxopiperidin-3-yl)-4-oxo-3,4-dihydrobenzo[d][1,2,3]triazin-6-yl)azetidine-3-carbonyl)piperidin-4-yl)propanoyl)piperidin-4-yl)-1H-pyrazol-4-yl)pyrazine-2-carboxylate] | 26.37% | 13.48% |
| 86.02% | 91.86% | 0.91 nM | Nc1ncc(-c2cnn(C3CCN(C(=O)CCC4CCN(C(=O)CCc5cccc6c5CN(C5CCC(=O)NC5=O)C6=O)CC4)CC3)c2)nc1C(=O)O[C@@H](C(=O)Nc1ccc(F)cc1)c1ccccc1 (stereo partly drawn) [TDH-439, (R)-2-((4-fluorophenyl)amino)-2-oxo-1-phenylethyl 3-amino-6-(1-(1-(3-(1-(3-(2-(2,6-dioxopiperidin-3-yl)-1-oxoisoindolin-4-yl)propanoyl)piperidin-4-yl)propanoyl)piperidin-4-yl)-1H-pyrazol-4-yl)pyrazine-2-carboxylate] | 41.96% | 43.64% |
| 81.51% | 84.75% | 0.51 nM | Nc1ncc(-c2cnn(C3CCN(CCCN4CCN(CC5CCN(C(=O)COc6ccc7c(c6)C(=O)N(C6CCC(=O)NC6=O)C7=O)CC5)CC4)CC3)c2)nc1C(=O)O[C@@H](C(=O)Nc1ccc(F)cc1)c1ccccc1 (stereo partly drawn) [TDH-440, (R)-2-((4-fluorophenyl)amino)-2-oxo-1-phenylethyl 3-amino-6-(1-(1-(3-(4-((1-(2-((2-(2,6-dioxopiperidin-3-yl)-1,3-dioxoisoindolin-5-yl)oxy)acetyl)piperidin-4-yl)methyl)piperazin-1-yl)propyl)piperidin-4-yl)-1H-pyrazol-4-yl)pyrazine-2-carboxylate] | 65.67% | 24.42% |
| 87.59% | 87.7% | 0.69 nM | Nc1ncc(-c2cnn(C3CCN(CCCN4CCN(CC5CCN(C(=O)CNc6ccc7c(c6)C(=O)N(C6CCC(=O)NC6=O)C7=O)CC5)CC4)CC3)c2)nc1C(=O)O[C@@H](C(=O)Nc1ccc(F)cc1)c1ccccc1 (stereo partly drawn) [TDH-441, (R)-2-((4-fluorophenyl)amino)-2-oxo-1-phenylethyl 3-amino-6-(1-(1-(3-(4-((1-((2-(2,6-dioxopiperidin-3-yl)-1,3-dioxoisoindolin-5-yl)glycyl)piperidin-4-yl)methyl)piperazin-1-yl)propyl)piperidin-4-yl)-1H-pyrazol-4-yl)pyrazine-2-carboxylate] | 71.58% | −15.73% |
